From patent US20180153995A1, “USE OF ANTIMICROBIAL POLYMERS FOR RE-SENSITIZATION OF MICROORGANISMS UPON EMERGENCE OF RESISTANCE TO ANTI-MICROBIAL AGENTS” (Technion Research & Development Foundation Limited, priority 2008, published 2018)
“And” between values parts separate entries of the source, which are not always exact repeats. Identical values can stand only once.

Key:
Escherichia coli strains = format: cell-based; settings: isogenic pair of E. coli K-12 strains
Method: (§1) MICs were determined by microdilution susceptibility testing in 96-well plates (by Nunc) using inocula of 10^5 bacteria per ml. Cell populations were evaluated by optical density measurements at 620 nm and were calibrated against a set of standards. Hundred (100) μl of a bacterial suspension were added to 100 μl of culture medium (control) or to 100 μl of culture medium containing various polymer concentrations in 2-fold serial dilutions. Inhibition of proliferation was determined by optical density measurements at 620 nm after an incubation period of 24 hours at 37° C.

[1] = tested on: E. coli N282 (L4 mutation); format: cell-based, Escherichia coli; settings: E. coli N282; polymer alone
[2] = tested on: E. coli N281 (L22 mutation); format: cell-based, Escherichia coli; settings: E. coli N281; polymer alone
MRSA 15903 = assay: microbe, parasite or virus in culture; format: cell-based, Staphylococcus aureus; settings: S. aureus CI-15903; +polymer (⅓ MIC) C12(5-ene)KKNC12KNH2
Method: The fractionary inhibitory (FIC) concentration index for combinations of two antimicrobial agents was calculated as follows: FIC index=FICA+FICB=A/MICA+B/MICB where A and B are the MIC values of agent A and agent B in the combination, MICA and MICB are the MICs of agent A and agent B alone, and FICA and FICB are the FICs of agent A and agent B.
The FIC indexes were interpreted as follows: less than 0.5 indicates a clear re-sensitizing effect; from 0.5 to 4 indicates a marginal or null re-sensitizing effect; and over 4 indicates antagonism.
Experimental data for FIG. 4 were obtained as follows.

[3] = tested on: E. coli K-12 resistant wild type; format: cell-based, Escherichia coli; settings: E. coli K-12 multi-resistant wild type
[4] = tested on: E. coli K-12 efflux knockout mutant; format: cell-based, Escherichia coli; settings: E. coli K-12 strain with decreased levels of efflux pumps
Method: as §1

E. coli CI14213 = format: cell-based, Escherichia coli
Method: as §1

In the case of `CCCCCCCCCCCC(=O)N[C@@H](CCCCN)C(=O)NCCCCCCCC(=O)N[C@@H](CCCCN)C(=O)NCCCCCCCC(=O)N[C@@H](CCCCN)C(=O)NCCCCCCCC(=O)N[C@@H](CCCCN)C(=O)NCCCCCCCC(=O)N[C@@H](CCCCN)C(=O)NCCCCCCCC(=O)N[C@@H](CCCCN)C(=O)NCCCCCCCC(=O)N[C@@H](CCCCN)C(=O)NCCCCCCCC(=O)N[C@@H](CCCCN)C(N)=O` [C12K(NC8K)7NH2], the MIC of polymer (Escherichia coli strains) is reported as 3.125 mg/L, the MIC of polymer [1] is reported as 1.6 µM and 3.1 µM and the MIC of polymer [2] is reported as 3.1 µM. The MIC (MRSA 15903) was 12.5 mg/L, the “effect of polymer on antibiotics potency” value [3] was “enhanced antibiotics potency” and the “effect of polymer on antibiotic MICs” value [4] was “not altered significantly”. The MIC of polymer (E. coli CI14213; CI14213) was 3.1 µM and the “re-sensitizing effect of polymer on oxacillin” value (E. coli CI14213; E. coli CI14213, polymer well below MIC (up to ⅛ MIC), 24 hours) was “endowed potency to oxacillin”.
